What was measured:
[1] = test system: effector memory T cells (TEM); assay: Kv1.3 expression, cytokine production and proliferation of TEM in activated PBMCs from IPEX subjects, with or without ShK-186 (flow cytometry, RT-QPCR); format: cell-based, human
Description: This example is performed to evaluate the expression of Kv1.3 channels by TEM found in IPEX subjects compared to controls, and to characterize the responsiveness of IPEX subject samples to treatment with therapeutic peptides such as the ShK-based peptide, ShK-186, formulated into a pharmaceutical composition. To evaluate Kv1.3 expression, peripheral blood mononuclear cells from IPEX and healthy controls are isolated. In the first phase of the example, the cells are activated in vitro with anti-CD3 antibodies or mitogens and then subjected to immunostaining and multicolor flow cytometry.
In the second phase, matching cell aliquots are analyzed by RT-QPCR for quantitation of Kv1.3 mRNA. In the third phase, matching cell aliquots are used to study the ability of ShK-186 to block the proinflammatory and proliferative potential of TEM from IPEX subjects versus controls. Cytokines (IFN-γ and IL-2, -4, -10, -17, and -21) and perforin are detected by intracellular cytokine staining and flow cytometry in resting or activated cells in the presence or absence of ShK-186. In this example, ten IPEX and ten normal controls are studied.
Peripheral blood mononuclear cells (PBMCs) are evaluated by multiparameter flow cytometry for cell surface expression of CD4 and CD25 and intracellular FOXP3. FACS sorting of all stimulated and stained samples will also be performed.

[2] = test system: IPEX and secondary conditions related to IPEX; assay: Administration of effective amounts to subjects with IPEX (additional studies); format: in vivo; conditions: diabetes, thyroid dysfunction, enteropathy, eczema and others

(L-PhosphoTyr)-AEEAc-RSCIDTIPKSRCTAFQCKHSMKYRLSFCRKTCGTC-amide [ShK-186]
proliferation of TEM ([1]; PBMCs from IPEX subjects vs controls): reduces
expression of Kv1.3 channels by TEM ([1]; PBMCs from IPEX subjects vs healthy controls, activated with anti-CD3 antibodies or mitogens): reduces
IFN-γ and IL-2, -4, -10, -17, and/or -21 production by TEM ([1]; intracellular cytokine staining and flow cytometry, resting or activated cells): reduces
clinically relevant improvements in IPEX and secondary conditions related to IPEX [2]: produces clinically relevant improvements
